In patent US11384078B2, “5,6-fused-bicyclic compounds and compositions for the treatment of parasitic diseases” (NOVARTIS AG, priority 2017, dated 2022):
pEC50: −log10 of the molar value. Where two headings read alike, the source gives them in different places.

Columns and labels:
Assay type in all cases: cell-based
[1] = system: Trypanosoma brucei brucei (Lister 427) strain; assay: Assay for growth inhibition against Trypanosoma brucei brucei (Cell TiterGlo ATP luminescence); conditions: Trypanosoma brucei, T. brucei brucei (Lister 427); read-out: T. Brucei (HAT) EC50
How it was run: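 T. b. brucei Lister 427 grown in HMI-9 with 10% FBS and 10% serum plus, seeded at 10,000 parasites/mL with 10-point threefold compound dilutions in duplicate, 37 °C for 2 days. Viability read as ATP luminescence 30 min after Cell TiterGlo; IC50 versus untreated controls.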

[2] = system: Trypanosoma cruzi amastigotes cultured in 3T3 fibroblast cells; assay: Assay for growth inhibition of kinetoplastid parasite Trypanosoma cruzi (beta-galactosidase Tulahuen strain, CPRG readout); conditions: Trypanosoma cruzi, T. cruzi amastigotes in 3T3 fibroblast cells, read-out: Buckner infectious T. cruzi EC50
How it was run: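 3T3 fibroblasts (1,000 cells/well) plated overnight, treated with compound in DMSO, then infected with 10,000 Lac-Z-expressing Tulahuen trypomastigotes. After 6 days, 0.6 mM CPRG with 0.6% NP-40 added for 2 h at room temperature; absorbance gives relative intracellular amastigote numbers. Benznidazole and nifurtimox serve as positive controls.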

[3] = system: Leishmania donovani axenic amastigote; assay: In vitro assay for growth inhibition of Leishmania donovani axenic amastigote (Cell TiterGlo luminescence); conditions: Leishmania donovani, L. donovani axenic amastigotes in vitro; read-out: L. donovani amastigotes EC50
How it was run: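 Axenic L. donovani amastigotes (9600/well) grown at 37 °C, 5% CO2 in supplemented RPMI 1640, pH 5.5, with compound added from DMSO. After two days, viability read by CellTiter-Glo luminescence against DMSO and control-compound wells.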

[4] = system: L. donovani HU3 strain in mouse peritoneal macrophages; assay: Assay for inhibition of parasitemia of Leishmania donovani in mouse macrophages (SYBR Green nuclei count, high-content imaging); conditions: Leishmania donovani, Peritoneal macrophage, read-out: L. donovani in Mouse Macrophages EC50
How it was run: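 Peritoneal macrophages from uninfected BALB/c mice were infected for 24 h with spleen-derived L. donovani HU3 (4×10^5 parasites per 2×10^4 macrophages), then cultured with compound for 5 days at 37° C, 5% CO2. After fixation and permeabilization, parasite nuclei were stained with SYBR Green and counted by high-content imaging.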

[5] = L. donovani in mouse peritoneal macrophages

`CC(C)c1cnc2nn(-c3cc(NC(=O)CC(F)(F)F)ccc3F)cc2c1` [Compound 212, 3,3,3-trifluoro-N-{4-fluoro-3-[5-(propan-2-yl)-2H-pyrazolo[3,4-b]pyridin-2-yl]phenyl}propanamide] was tested, and the pEC50 [1] was 5.69, the pEC50 ([2]; Fibroblast) was 5.76 and the pEC50 [3] was 4.95. It also gave a pEC50 [4, 5] of 5.05.

Work on `Cc1nc(C)c(C(=O)Nc2ccc(F)c(-n3cc4cc(NC(=O)OC(C)C)cnc4n3)c2)o1` [Compound 159, propan-2-yl N-{2-[5-(dimethyl-1,3-oxazole-5-amido)-2-fluorophenyl}-2H-pyrazolo[3,4-b]pyridin-5-yl}carbamate] yielded a pEC50 [1] of over 7.64, a pEC50 ([2]; Fibroblast) of 7.43 and a pEC50 [3] of 7.89. The pEC50 [4, 5] was 7.77.

Compound `CNC(=O)Nc1ccc(F)c(-n2cc3cc(NC)cnc3n2)c1` [Compound 142, 1-{4-fluoro-3-[5-(methylamino)-2H-pyrazolo[3,4-b]pyridin-2-yl]phenyl}-3-methylurea] has a pEC50 [1] of 5.37, a pEC50 ([2]; Fibroblast) of 4.96 and a pEC50 [3] of 5.11. The pEC50 [4, 5] was 5.04.

`CC(C)CCc1cnc2nn(-c3cc(NC(=O)N4CCC4)ccc3F)cc2c1` [Compound 98, N-{4-fluoro-3-[5-(3-methylbutyl)-2H-pyrazolo[3,4-b]pyridin-2-yl]phenyl}azetidine-1-carboxamide] showed a pEC50 [1] of over 7.64, a pEC50 ([2]; Fibroblast) of 7.82 and a pEC50 [3] of 7.60. For the same compound, the pEC50 [4, 5] was 7.64.

In the case of `Cc1nc(C)c(C(=O)Nc2ccc(F)c(-n3cc4cc(CCC(C)C)cnc4n3)c2)o1` [Compound 107, N-{4-fluoro-3-[5-(3-methylbutyl)-2H-pyrazolo[3,4-b]pyridin-2-yl]phenyl}-2,4-dimethyl-1,3-oxazole-5-carboxamide], the pEC50 [1] was 7.06, the pEC50 ([2]; Fibroblast) was 7.11 and the pEC50 [3] was 6.66. The pEC50 [4, 5] was 6.89.

`O=C(Nc1ccc(F)c(-n2cc3cc(N4CC5(CC5)C4)cnc3n2)c1)N1CC(F)(F)C1` [Compound 258, N-[3-(5-{5-azaspiro[2.3]hexan-5-yl}-2H-pyrazolo[3,4-b]pyridin-2-yl)-4-fluorophenyl}-3,3-difluoroazetidine-1-carboxamide] was tested, and the pEC50 [1] was 7.55, the pEC50 ([2]; Fibroblast) was 7.92 and the pEC50 [3] was 7.64. The pEC50 [4, 5] was 7.41.

Work on `O=C(Nc1ccc(F)c(-n2cc3cc(-c4ccccn4)cnc3n2)c1)C1=CCC1` [Compound 218, N-{4-fluoro-3-[5-(pyridin-2-yl)-2H-pyrazolo[3,4-b]pyridin-2-yl]phenyl}cyclobut-1-ene-1-carboxamide] yielded a pEC50 [1] of 8.52, a pEC50 ([2]; Fibroblast) of 7.42 and a pEC50 [3] of 8.40. It also gave a pEC50 [4, 5] of 6.67.

`CC(C)(C)Cc1cnc2nn(-c3cc(NC(=O)N4CC[C@@H](F)C4)ccc3F)cc2c1` [Compound 46, (3R)-N-{3-[5-(2,2-dimethylpropyl)-2H-pyrazolo[3,4-b]pyridin-2-yl]-4-fluorophenyl}-3-fluoropyrrolidine-1-carboxamide] showed a pEC50 [1] of over 7.64, a pEC50 ([2]; Fibroblast) of 8.77 and a pEC50 [3] of 8.08. The pEC50 [4, 5] was 8.46.

For `O=C(Nc1ccc(F)c(-n2cc3cc(Br)cnc3n2)c1)N1CCC1` [Compound 129, N-(3-(5-bromo-2H-pyrazolo[3,4-b]pyridin-2-yl)-4-fluorophenyl)azetidine-1-carboxamide], the pEC50 [1] was over 7.64, the pEC50 [2] was 7.82 and the pEC50 [3] was 7.54. The pEC50 [4] was 7.51.

`CCC(C)c1cnc2nn(-c3cc(NC(=O)N4CCC4)ccc3F)cc2c1` (stereo not shown) [Compound 96, N-{3-[5-(butan-2-yl)-2H-pyrazolo[3,4-b]pyridin-2-yl]-4-fluorophenyl}azetidine-1-carboxamide] was tested, and the pEC50 [1] was over 7.64, the pEC50 ([2]; Fibroblast) was 7.74 and the pEC50 [3] was 7.64. For the same compound, the pEC50 [4, 5] was 7.68.
